What was measured:
microglia = test: Confocal imaging of microglial uptake of Aβ1-42 oligomers; type: cell-based, rat; conditions: primary cortical microglia
Procedure: Aβ1-42 oligomers are shown in red, and blue is DAPI staining of DNA to show the microglia itself (A). An apical-to-distal slice was obtained from a three-dimensional image rendered from Z-stacks. Confocal imaging was performed on mixed cortical cells labeled for Aβ (red) and stained with DAPI (blue) as described in the Example Section under Materials and Methods. Microglia were identified and scanned for the maximum fluorescence intensity through a series of confocal stacks representing intracellular locations (B), and the total area of fluorescent signal above a minimum threshold was quantified (C). Each mark on the graph represents the total area of Aβ stained within a single cell. A minimum of 20 cells were analyzed for each treatment condition. Data were compared using one-way ANOVA followed by Tukey post-hoc multiple comparison. Means (±SEM) are shown. […] Red is Iba1 staining, green is HyLite Fluor-488-labeled Aβ1 42, and blue is DAPI staining. […] Statistical analysis was done using one-way ANOVA followed by Tukey post-hoc multiple comparison.
Cells were grown on a glass coverslips. Following treatment, cells were quickly washed with PBS and then fixed with 4% paraformaldehyde for 20 min. After thorough washes, cells were immersed in 100% methanol for 10 min at −20° C. They were then washed again and incubated in a blocking solution, PBS containing 10% normal goat serum for 1 h at room temperature. After an overnight incubation with the primary antibody, cells were washed and incubated for 2 h with the secondary antibody, then washed and mounted on glass slides using ProLong Gold antifade reagent (Invitrogen). Epifluorescence and confocal images were acquired on a LSM 700 inverted microscope from Zeiss, using a 63× lens. Fluorescence intensity was measured in cell bodies delineated by saturated epifluorescence pictures. Z-stacks were rendered into a three-dimensional image using ImageJ 1.42 (National Institutes of Health, freeware) from which an apical to distal slice containing the labeled proteins was obtained. Cells treated with HyLite Fluor-488-tagged Aβ1-42 were treated in the same way except no primary or secondary antibodies were used to label for Aβ1-42.

[1] = system: human Fcγ receptors (FcγRIa, FcγRIIa, FcγRIIb, FcγRIIIa); test: FcγR binding ELISA, panel of human Fcγ receptors; conditions: cross-linked antibody
Procedure: FIG. 10 provides graphs and immunocytochemical images corresponding to the experiments described in Example 6.5. […] These findings are consistent with published data for human IgG4 antibodies (Gessner et al., 1998) and IgG1 antibodies carrying the D265A mutation (Shields et al., 2001).
(§1) The binding of test antibodies to a panel of human Fcγ receptors (FcγRs) was measured using enzyme-linked immunosorbent assay (ELISA). Human FcγRs (Genentech, Inc., CA) are fusion proteins containing the extracellular domain of the receptor γ-chain with a Gly/6xHis/glutathione S transferase (GST) polypeptide tag at the C terminus. A monoclonal antibody with human IgG1 framework was used as the positive control (IgG1 control) in this experiment. Plates were coated with a mouse monoclonal anti GST antibody (Genentech, Inc.) in a 0.05 M sodium carbonate buffer (pH 9.6) overnight at 4° C. After blocking with an assay buffer containing phosphate buffered saline (PBS), 0.5% BSA, and 0.05% Tween-20, the plates were incubated with FcγRs at room temperature for 1 h. Human FcγRs were immobilized to the plate via interaction with the anti-GST coating. […] Diluted samples were applied as monomeric forms for the high affinity receptor (FcγRIa), or multimeric forms for the low affinity receptors (FcγRIIa, FcγRIIb, and FcγRIIIa). The multimeric forms of test antibodies were generated by cross linking F(ab′)2 fragment of goat anti human κ-chain (MP Biomedicals, Solon, Ohio), with test monoclonal antibody at an approximate molar ratio of 3:1. The plates were incubated with FcγRs at room temperature for 2 h. […] The antibodies bound to the FcγRs were detected with horseradish peroxidase (HRP)-conjugated F(ab′)2 fragment of goat anti human F(ab′)2 (Jackson ImmunoResearch Laboratories; West Grove, Pa.). […] The reaction was terminated with 1 M H3PO4, and absorbance at 450 nm with reference at 650 nm was measured on a plate reader (Molecular Devices, Sunnyvale, Calif.). Binding curves were generated by plotting the mean absorbance values from duplicates of sample dilutions against the respective sample […].

FcγRIIIa-V158 = molecular target: T1, FcγRIIIa-V158 (Homo sapiens, UniProt P08637, F176V); test: FcγR binding ELISA, FcγRIIIa-V158; conditions: cross-linked IgG mAb
T1 construct: fusion proteins containing the extracellular domain of the receptor γ-chain
T1 sequence (P08637 17-208 F176V): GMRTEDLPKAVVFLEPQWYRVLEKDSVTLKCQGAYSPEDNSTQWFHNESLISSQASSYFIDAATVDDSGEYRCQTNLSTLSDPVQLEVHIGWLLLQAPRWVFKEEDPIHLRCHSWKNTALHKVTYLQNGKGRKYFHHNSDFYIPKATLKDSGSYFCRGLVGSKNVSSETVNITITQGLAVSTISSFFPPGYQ
Procedure: The ability of these different monoclonal antibody backbones to internalize Aβ1-42 oligomers into microglia was then compared using confocal imaging on Aβ1-42 oligomer treated primary cortical microglia. […] To verify that microglia are indeed the cells taking up Aβ1-42 complexed to monoclonal antibodies, the study was repeated using HiLyte Fluor-488 tagged Aβ1-42 and co-stained for the microglial marker Iba1.
as §1, with “FcγRIIIa).” for “FcγRIIIa). The multimeric forms of test antibodies were generated by cross linking F(ab′)2 fragment of goat anti human κ-chain (MP Biomedicals, Solon, Ohio), with test monoclonal antibody at an approximate molar ratio of 3:1. The plates were incubated with FcγRs at room temperature for 2 h.”

[2] = system: mixed cortical cells from P1 rats; test: Aβ1-42 oligomer cytotoxicity assay, MTT readout; type: cell-based, rat
Procedure: FIG. 2 provides graphs and immunocytochemical images corresponding to the experiments described in Example 6.3. […] An MTT assay was used to determine cell viability as described in the Methods section. The means (±SEM) of five independent experiments are shown. *P<0.05, **P<0.01. […] Neurotoxicity following extended Aβ1-42 oligomer treatment was tested by morphological analyses (C).
A non-specific IgG monoclonal antibody was used as a control in all experiments.
Rat primary cortical cultures were prepared from Sprague-Dawley rats (Charles River Laboratories L'Arbresle, France) at post-natal day 1, as described by Meberg and Miller (Meberg and Miller, 2003). Cerebellum and meninges were removed, and cortices were cut into small pieces and dissociated with enzymatic disruption at 37° C. in dissociation buffer (papaine, CaCl2, EDTA, and HEPES; all from Invitrogen, Carlsbad, Calif.). DNase (Invitrogen) was added for 10 min. Following dissociation, dispersed cortical neurons were plated onto poly-L-lysine (0.01%; mol. wt 150,000-300,000; Sigma) coated 6-well, 24-well, or 96-well tissue culture plates. For immunocytochemistry, cells were grown on coated glass coverslips, into 24-well plates. Cells were maintained in Neurobasal media (Invitrogen) without phenol-red, with the addition of L-glutamine (2 mM; Sigma), B27 supplement (Invitrogen), and penicillin/streptomycin (Sigma) in a humidified incubator at 37° C. and 5% CO2. Following 1 h and 30 min in culture, the media was replaced with astrocyte-conditioned medium. After a further 4 days in culture, cell proliferation was blocked by treatment with cytosine arabinoside (Ara-C) at 2.5 μM (Invitrogen). Under these culture conditions, 20% of cells were identified as neurons by NeuN/DAPI staining (not shown). Experiments using mixed cortical cultures were generally performed at days-in-vitro (“DIV”) 6 unless stated otherwise. Enriched microglia prepared from cortex and hippocampus were harvested as described for cortical cultures above. Cortex and hippocampus were put in DMEM containing high glucose and homogenized by pipetting with a 10 mL pipette and then with a syringe. The homogenate was centrifuged for 3 min at 1,000×g, and then resuspended in pre-warmed DMEM containing high glucose containing 10% FCS and penicillin/streptomycin (microglia media). The cell suspension was next transferred to a T75 tissue-culture flask and kept in a humidified incubator at 37° C. and 5% CO2 for 1 week. The flask was shaken to separate microglia from adherent cells, and collected and washed in DMEM. The resulting cells were resuspended in 1 mL microglia media, counted, and plated at 5×10^4 cells/well. To verify microglial enrichment, cells were stained with the astroglial and microglial markers GFAP and Iba1, respectively. Greater than 60% of cells stained positive for Iba1, with no cells staining for both GFAP and Iba1. Pure microglia were prepared from post-natal day 3 CX3CR1-GFP mice (Jackson Laboratories). Cortex and hippocampus were dissected and triturated in DMEM containing high glucose using a 10 mL pipette, and then with an 18 gauge needle. The homogenate was centrifuged for 3 min at 1,000 g, and then resuspended in pre-warmed DMEM containing high glucose, 10% FBS and penicillin/streptomycin (microglia media). The cell suspension was next transferred to a T75 tissue-culture flask and kept in a humidified incubator at 37° C. and 5% CO2 for 7-10 d. Microglia were isolated by shaking, collected and washed in DMEM. The resulting cells were resuspended in 1 mL microglia media, counted, and plated on tissue culture treated glass chamber slides at 5×10^4 cells/well for use in experiments.
The cytotoxicity of Aβ1-42 oligomers was tested on mixed cortical cultures at DIV 5. All antibodies, at a final concentration of 100 μg/mL, were co-incubated with Aβ1-42 oligomers for 30 min in serum-free cell culture medium at 37° C. before treatment of cells. […]

Substance: MABT-IgG1-D265A: same antigen binding sequences as MABT on human IgG1 backbone carrying a D265A mutation that dramatically reduces FcγR-binding
- Aβ1-42 oligomer internalization into microglia, rank order (microglia): MABT-IgG1>MABT>MABT-IgG1-D265A
- binding to FcγRs [1]: substantially reduced binding to all the FcγRs
- binding to FcγRIIIa-V158, hierarchy (FcγRIIIa-V158): MABT-IgG>MABT>MABT-IgG1-D265A
- antibody-mediated increase in MTT signal under p38MAPK inhibition ([2]; 10 μM Aβ1-42 oligomers, 100 μg/ml antibody, 1 μM SB239063, 24 h): no effect
- reversal of Aβ1-42 oligomer-mediated toxicity ([2]; mixed primary cortical cultures, different IgG backbones): only a non-significant trend towards reversal
